The subject of assay [1] is Glycine max. Briefly: Activity of soybean lipoxygenase 1 assessed as rate of oxidation under diffusion-controlled reaction at 37 deg C.
For assay [2], the system named is Glycine max. Briefly: Activity of soybean lipoxygenase 1 assessed as rate of oxidation under diffusion-controlled reaction at 5 deg C.
Assay [3] relates to Glycine max. In words: Activity of soybean lipoxygenase 1 assessed as rate of oxidation under diffusion-controlled reaction at 20 deg C.
In assay [4] the test system is Glycine max. In words: Activity of soybean lipoxygenase 1.

The term Km denotes the substrate concentration at which the rate is half of its maximum. Regarding `CCCCC/C=C\C/C=C\C/C=C\C/C=C\CCCC(=O)O`, the Activity in the assay with Glycine max [1] worked out at 28%; with Glycine max [2] it was 18%; with Glycine max [3], 56%. For the same molecule, the Michaelis-Menten constant (Km) with Glycine max [4] was found to be 15 µM.

As for `CCCCC/C=C\C/C=C\CCCCCCCC(=O)O`, the Km with Glycine max [4] is 39 µM.

Source of the values: ChEMBL document CHEMBL1152127, “Kinetic isotope effects in the oxidation of arachidonic acid by soybean lipoxygenase-1” (Bioorg Med Chem Lett, 2008).
